Measurements: US20260317307A1, “Process for the Preparation of Deucravacitinib, and Crystalline Forms Thereof” (Alivus Life Sciences Limited, priority 2023, published 2026)

What was measured:
[1] = Particle size of crystalline form A (Example 38); type: physicochemical
[2] = Stability of crystalline form A (polymorphic form identification by XRPD on storage); type: physicochemical; conditions: 1 Month, complies with Form A
Source text: Stability data of crystalline form A of deucravacitinib prepared by the present invention: […]

[2H]C([2H])([2H])NC(=O)c1nnc(NC(=O)C2CC2)cc1Nc1cccc(-c2ncn(C)n2)c1OC [crystalline form A of deucravacitinib, 6-(cyclopropanecarboxamido)-4-((2-methoxy-3-(1-methyl-1H-1,2,4-triazol-3-yl)phenyl)amino)-N-(trideuteriomethyl)pyridazine-3-carboxamide]
Particle Size D10 ([1]; After jet milling): 1.6 μm
Particle Size D50 ([1]; After jet milling): 3.0 μm
Particle Size D90 ([1]; After jet milling): 5.6 μm
Particle Size D10 ([1]; before jet milling): 9.4 μm
Particle Size D50 ([1]; before jet milling): 21.64 μm
Particle Size D90 ([1]; before jet milling): 39.49 μm
Polymorphic Form Identification: XRPD pattern should exhibit characteristic peaks of Form A at 10.1°, 12.4°, 18.9°, 19.3° and 20.4° ± 0.2° 2 theta ([2]; storage 25 °C/60% RH): Complies
Polymorphic Form Identification: XRPD pattern should exhibit characteristic peaks of Form A at 10.1°, 12.4°, 18.9°, 19.3° and 20.4° ± 0.2° 2 theta ([2]; storage 40 °C/75% RH): Complies
Polymorphic Form Identification: XRPD pattern should exhibit characteristic peaks of Form A at 10.1°, 12.4°, 18.9°, 19.3° and 20.4° ± 0.2° 2 theta ([2]; storage 60 °C/90% RH): Complies
